Columns and labels:
[1] = Oxidation in UV light in the presence of further antioxidants: UV/VIS spectrum of beta-carotene emulsions on irradiation
[2] = Oxidation in UV light: change in the UV spectrum on irradiation; format: physicochemical
Description: The curves stand for the unirradiated substance (exposed to 0 kJ/m^2), after irradiation for 15 min (exposure to 86 kJ/m^2), after irradiation for 65 min (exposure to 373 kJ/m^2), after irradiation for 235 min (exposure to 1349 kJ/m^2) and after irradiation for 405 min (exposure to 2325 kJ/m^2).

effect on beta-carotene degradation in the emulsion on UV irradiation ([1]; emulsion with 0.5% beta-carotene and 4% compound vs emulsion without compound, irradiated 90 min, beta-carotene absorption at 440-480 nm): stabilises the beta-carotene
Emax of the absorption of the reaction product in the UV-A region ([1]; emulsion with 0.5% by weight beta-carotene and 4% by weight compound, irradiated 90 min (curve B)): 320-340 nm
UV absorption in the UV-A region on irradiation with UV light ([2]; after irradiation for 65 min (373 kJ/m^2), xenon lamp 95.69 W/m^2, 290-400 nm, increases further on longer irradiation): significantly increased UV absorption
Emax of the UV-A absorption developed on irradiation ([2]; neat substance, after UV irradiation): 320-340 nm
SMILES: CCCCC(CC)COC(=O)C(Cc1cc(OC)c(O)c(OC)c1)C(=O)OCC(CC)CCCC (stereo not shown)

From patent US8268293B2, “UV protection” (Merck Patent GmbH, priority 2005, dated 2012)
